Measured values as given in the kinase profiling compilation of Christmann-Franck et al. (2016).

Columns and labels:
Assay in all cases: KINOMEscan competition binding
Conditions in all cases: compound 10.0 µM
[1] = target: MYLK3 (human) (UniProt Q32MK0)
[2] = target: RPS6KA3 KD1 (human) (UniProt P51812)
[3] = target: EPHA2 (human) (UniProt P29317)
[4] = target: PIM2 (human) (UniProt Q9P1W9)
[5] = target: EPHA8 (human) (UniProt P29322)
[6] = target: PTK2 (human) (UniProt Q05397)
[7] = target: MYLK2 (human) (UniProt Q9H1R3)
[8] = target: MAP3K13 (human) (UniProt O43283)
[9] = target: KIT (human) (UniProt P10721)
[10] = target: MARK3 (human) (UniProt P27448)
[11] = target: GSK3A (human) (UniProt P49840)
[12] = target: FGR (human) (UniProt P09769)
[13] = target: PRKCD (human) (UniProt Q05655)
[14] = target: RPS6KA4 KD2 (human) (UniProt O75676)
Chain of RPS6KA4 KD2 (human) (O75676 whole entry, looked up): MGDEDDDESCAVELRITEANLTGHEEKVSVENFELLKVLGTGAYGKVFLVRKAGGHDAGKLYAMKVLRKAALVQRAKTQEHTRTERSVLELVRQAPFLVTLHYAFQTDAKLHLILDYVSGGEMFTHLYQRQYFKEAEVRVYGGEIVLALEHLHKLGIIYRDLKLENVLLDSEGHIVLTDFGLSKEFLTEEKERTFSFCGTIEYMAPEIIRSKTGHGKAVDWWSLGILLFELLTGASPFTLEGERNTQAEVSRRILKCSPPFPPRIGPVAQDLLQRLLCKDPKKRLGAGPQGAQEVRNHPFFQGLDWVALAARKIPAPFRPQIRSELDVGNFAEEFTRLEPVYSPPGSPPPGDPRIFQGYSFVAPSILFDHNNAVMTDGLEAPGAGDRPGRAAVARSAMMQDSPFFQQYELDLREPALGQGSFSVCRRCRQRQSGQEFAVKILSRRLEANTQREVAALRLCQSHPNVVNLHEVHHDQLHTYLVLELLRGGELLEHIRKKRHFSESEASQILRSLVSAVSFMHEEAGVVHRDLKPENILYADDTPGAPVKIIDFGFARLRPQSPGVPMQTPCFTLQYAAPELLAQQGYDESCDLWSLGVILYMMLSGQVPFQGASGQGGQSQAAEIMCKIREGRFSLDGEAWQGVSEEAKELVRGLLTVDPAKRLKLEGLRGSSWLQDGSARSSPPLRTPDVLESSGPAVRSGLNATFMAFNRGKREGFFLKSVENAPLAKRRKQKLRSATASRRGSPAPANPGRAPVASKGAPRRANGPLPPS

[15] = target: PRKCH (human) (UniProt P24723)
Chain of PRKCH (human) (P24723 whole entry, looked up): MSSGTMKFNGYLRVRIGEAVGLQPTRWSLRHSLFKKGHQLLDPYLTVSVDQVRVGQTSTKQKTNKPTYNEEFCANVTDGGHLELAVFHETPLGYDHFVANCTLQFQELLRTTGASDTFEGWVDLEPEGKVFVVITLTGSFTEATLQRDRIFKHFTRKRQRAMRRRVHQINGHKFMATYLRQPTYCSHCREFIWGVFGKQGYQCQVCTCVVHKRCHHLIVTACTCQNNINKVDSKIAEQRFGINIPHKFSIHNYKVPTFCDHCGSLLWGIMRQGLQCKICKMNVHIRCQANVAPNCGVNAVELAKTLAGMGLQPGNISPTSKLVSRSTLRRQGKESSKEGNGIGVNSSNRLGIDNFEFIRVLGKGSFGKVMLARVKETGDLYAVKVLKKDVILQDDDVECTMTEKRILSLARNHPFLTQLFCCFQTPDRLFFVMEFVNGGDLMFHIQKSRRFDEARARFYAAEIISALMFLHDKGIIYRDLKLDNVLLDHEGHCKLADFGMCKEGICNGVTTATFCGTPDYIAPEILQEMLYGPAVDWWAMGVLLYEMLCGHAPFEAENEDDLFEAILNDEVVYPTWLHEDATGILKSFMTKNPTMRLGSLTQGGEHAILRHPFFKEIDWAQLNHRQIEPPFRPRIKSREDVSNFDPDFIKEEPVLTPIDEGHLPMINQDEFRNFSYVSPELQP

[16] = target: MAP3K1 (human) (UniProt Q13233)
[17] = target: MAPKAPK2 (human) (UniProt P49137)
Chain of MAPKAPK2 (human) (P49137 whole entry, looked up): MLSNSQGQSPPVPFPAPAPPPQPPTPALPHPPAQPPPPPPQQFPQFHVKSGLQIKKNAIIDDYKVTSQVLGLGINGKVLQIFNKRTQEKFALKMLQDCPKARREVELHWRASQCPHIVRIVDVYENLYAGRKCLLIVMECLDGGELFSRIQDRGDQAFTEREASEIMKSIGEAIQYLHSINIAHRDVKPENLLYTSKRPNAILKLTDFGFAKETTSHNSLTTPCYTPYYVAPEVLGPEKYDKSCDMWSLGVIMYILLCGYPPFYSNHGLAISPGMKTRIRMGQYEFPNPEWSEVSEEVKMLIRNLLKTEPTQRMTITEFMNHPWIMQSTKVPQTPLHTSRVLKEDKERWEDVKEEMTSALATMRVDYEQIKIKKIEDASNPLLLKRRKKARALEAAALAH

[18] = target: RPS6KA6 KD1 (human) (UniProt Q9UK32)
[19] = target: CDKL5 (human) (UniProt O76039)
[20] = target: NUAK2 (human) (UniProt Q9H093)
[21] = target: PDGFRB (human) (UniProt P09619)
[22] = target: CSNK1A1L (human) (UniProt Q8N752)
[23] = target: LIMK2 (human) (UniProt P53671)
[24] = target: CDKL1 (human) (UniProt Q00532)
[25] = target: ACVR2B (human) (UniProt Q13705)
Chain of ACVR2B (human) (Q13705 whole entry, looked up): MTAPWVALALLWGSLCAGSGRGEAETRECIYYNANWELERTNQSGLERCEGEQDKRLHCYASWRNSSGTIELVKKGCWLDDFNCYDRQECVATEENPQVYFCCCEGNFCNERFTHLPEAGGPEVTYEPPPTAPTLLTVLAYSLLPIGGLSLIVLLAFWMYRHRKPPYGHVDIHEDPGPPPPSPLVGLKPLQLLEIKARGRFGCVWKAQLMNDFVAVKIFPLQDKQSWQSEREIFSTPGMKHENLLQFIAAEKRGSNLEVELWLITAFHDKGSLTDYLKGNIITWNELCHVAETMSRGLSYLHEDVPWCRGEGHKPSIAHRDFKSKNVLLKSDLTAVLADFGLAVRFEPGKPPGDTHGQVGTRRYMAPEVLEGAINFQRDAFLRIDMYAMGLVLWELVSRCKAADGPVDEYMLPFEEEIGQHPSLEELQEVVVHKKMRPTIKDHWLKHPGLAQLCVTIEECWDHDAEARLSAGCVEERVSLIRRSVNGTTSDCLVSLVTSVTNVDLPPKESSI

[26] = target: MAP3K7 (human) (UniProt O43318)
[27] = target: ROCK2 (human) (UniProt O75116)
[28] = target: PIP5K1C (human) (UniProt O60331)
Chain of PIP5K1C (human) (O60331 whole entry, looked up): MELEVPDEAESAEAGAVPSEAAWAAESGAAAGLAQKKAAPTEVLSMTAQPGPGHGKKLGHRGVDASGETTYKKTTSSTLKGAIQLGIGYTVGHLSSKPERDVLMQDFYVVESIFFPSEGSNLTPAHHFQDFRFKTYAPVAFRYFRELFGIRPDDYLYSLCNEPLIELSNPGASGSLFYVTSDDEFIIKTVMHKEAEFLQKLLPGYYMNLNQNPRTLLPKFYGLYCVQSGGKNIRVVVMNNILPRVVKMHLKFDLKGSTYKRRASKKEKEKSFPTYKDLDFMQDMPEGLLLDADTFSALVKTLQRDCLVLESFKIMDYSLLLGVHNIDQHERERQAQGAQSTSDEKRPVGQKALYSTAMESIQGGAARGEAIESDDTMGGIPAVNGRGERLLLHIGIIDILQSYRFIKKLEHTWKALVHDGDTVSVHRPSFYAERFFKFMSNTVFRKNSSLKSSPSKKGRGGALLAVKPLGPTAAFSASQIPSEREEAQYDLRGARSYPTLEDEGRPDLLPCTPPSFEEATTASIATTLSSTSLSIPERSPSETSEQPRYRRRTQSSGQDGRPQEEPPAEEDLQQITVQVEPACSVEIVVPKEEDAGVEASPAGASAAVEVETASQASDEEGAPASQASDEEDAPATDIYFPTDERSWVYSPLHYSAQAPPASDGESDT

[29] = target: NEK6 (human) (UniProt Q9HC98)
[30] = target: HIPK4 (human) (UniProt Q8NE63)
[31] = target: MAP2K4 (human) (UniProt P45985)
[32] = target: CDK2 (human) (UniProt P24941)
[33] = target: MAP4K1 (human) (UniProt Q92918)
[34] = target: CAMK4 (human) (UniProt Q16566)
[35] = target: MKNK1 (human) (UniProt Q9BUB5)
Chain of MKNK1 (human) (Q9BUB5 whole entry, looked up): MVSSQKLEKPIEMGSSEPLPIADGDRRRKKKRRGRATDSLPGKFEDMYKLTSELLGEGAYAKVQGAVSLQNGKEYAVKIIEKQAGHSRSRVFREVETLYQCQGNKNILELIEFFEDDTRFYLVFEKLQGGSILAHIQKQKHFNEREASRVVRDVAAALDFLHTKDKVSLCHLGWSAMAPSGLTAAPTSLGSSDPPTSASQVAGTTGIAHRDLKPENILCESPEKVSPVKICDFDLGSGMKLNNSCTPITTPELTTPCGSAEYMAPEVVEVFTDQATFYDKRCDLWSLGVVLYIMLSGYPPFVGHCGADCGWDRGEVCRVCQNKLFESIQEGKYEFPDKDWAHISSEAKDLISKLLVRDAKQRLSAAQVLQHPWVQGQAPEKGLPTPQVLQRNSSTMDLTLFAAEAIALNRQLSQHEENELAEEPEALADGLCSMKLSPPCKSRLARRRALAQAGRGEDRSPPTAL

[36] = target: ITK (human) (UniProt Q08881)
[37] = target: CAMKK1 (human) (UniProt Q8N5S9)
[38] = target: BTK (human) (UniProt Q06187)
Chain of BTK (human) (Q06187 whole entry, looked up): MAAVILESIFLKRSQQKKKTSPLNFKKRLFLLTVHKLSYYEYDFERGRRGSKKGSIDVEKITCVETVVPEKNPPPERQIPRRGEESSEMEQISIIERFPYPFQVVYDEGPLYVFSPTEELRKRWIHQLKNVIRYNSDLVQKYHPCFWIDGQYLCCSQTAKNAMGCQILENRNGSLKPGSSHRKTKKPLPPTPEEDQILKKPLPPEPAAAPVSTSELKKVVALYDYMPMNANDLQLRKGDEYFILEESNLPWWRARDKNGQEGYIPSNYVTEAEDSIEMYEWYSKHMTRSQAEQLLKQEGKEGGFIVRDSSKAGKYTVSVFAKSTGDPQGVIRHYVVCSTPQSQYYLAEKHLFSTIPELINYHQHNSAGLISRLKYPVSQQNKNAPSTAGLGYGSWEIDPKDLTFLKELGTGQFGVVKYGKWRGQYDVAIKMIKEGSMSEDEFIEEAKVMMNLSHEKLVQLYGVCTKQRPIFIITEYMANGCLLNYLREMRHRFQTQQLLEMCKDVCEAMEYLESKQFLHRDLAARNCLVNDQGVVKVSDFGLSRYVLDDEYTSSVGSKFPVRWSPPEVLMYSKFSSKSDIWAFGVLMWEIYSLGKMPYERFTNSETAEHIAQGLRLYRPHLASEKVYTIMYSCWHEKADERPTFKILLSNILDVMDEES

[39] = target: PKN1 (human) (UniProt Q16512)
[40] = target: JAK3 JH1 catalytic (human) (UniProt P52333)

Chain of MYLK3 (human) (Q32MK0 whole entry, looked up): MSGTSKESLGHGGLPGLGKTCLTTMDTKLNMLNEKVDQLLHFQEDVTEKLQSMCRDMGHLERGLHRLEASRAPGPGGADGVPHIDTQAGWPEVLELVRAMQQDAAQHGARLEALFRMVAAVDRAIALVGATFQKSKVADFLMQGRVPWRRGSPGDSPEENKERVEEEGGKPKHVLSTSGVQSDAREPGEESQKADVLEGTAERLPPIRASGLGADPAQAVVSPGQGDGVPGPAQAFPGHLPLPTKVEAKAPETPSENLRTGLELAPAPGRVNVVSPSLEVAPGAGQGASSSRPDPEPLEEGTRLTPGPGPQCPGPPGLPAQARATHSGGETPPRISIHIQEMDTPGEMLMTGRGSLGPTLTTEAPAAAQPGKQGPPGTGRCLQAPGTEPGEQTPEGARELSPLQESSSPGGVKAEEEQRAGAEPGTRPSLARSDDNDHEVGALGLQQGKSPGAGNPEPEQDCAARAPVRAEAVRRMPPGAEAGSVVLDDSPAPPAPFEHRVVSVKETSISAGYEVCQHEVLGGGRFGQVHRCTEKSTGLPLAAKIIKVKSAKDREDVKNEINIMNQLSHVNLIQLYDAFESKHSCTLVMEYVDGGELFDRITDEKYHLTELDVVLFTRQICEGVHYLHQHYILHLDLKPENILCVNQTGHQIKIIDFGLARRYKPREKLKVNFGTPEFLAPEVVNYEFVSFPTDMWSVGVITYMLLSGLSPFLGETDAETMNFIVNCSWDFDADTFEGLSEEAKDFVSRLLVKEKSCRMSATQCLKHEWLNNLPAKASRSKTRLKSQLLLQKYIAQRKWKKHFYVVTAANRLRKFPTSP

SMILES | kinase still bound, per cent of control [1] [%] | kinase still bound, per cent of control [2] [%] | kinase still bound, per cent of control [3] [%] | kinase still bound, per cent of control [4] [%] | kinase still bound, per cent of control [5] [%] | kinase still bound, per cent of control [6] [%] | kinase still bound, per cent of control [7] [%] | kinase still bound, per cent of control [8] [%] | kinase still bound, per cent of control [10] [%] | kinase still bound, per cent of control [11] [%] | kinase still bound, per cent of control [12] [%] | kinase still bound, per cent of control [13] [%] | kinase still bound, per cent of control [14] [%] | kinase still bound, per cent of control [16] [%] | kinase still bound, per cent of control [18] [%] | kinase still bound, per cent of control [19] [%] | kinase still bound, per cent of control [20] [%] | kinase still bound, per cent of control [21] [%] | kinase still bound, per cent of control [22] [%] | kinase still bound, per cent of control [23] [%] | further results
CC1=C(C(=O)Nc2cc3cn[nH]c3cc2F)C(c2ccc(C(F)(F)F)cc2)CC(=O)N1 (configuration not stated) | 92 | 53 | 84 | 100 | 71 | 79 | 99 | 83 | 100 | 100 | 78 | 39 | 100 | 90 | 42 | 45 | 6 | 70 | 98 | 89 | kinase still bound, per cent of control [9]: 90%; kinase still bound, per cent of control [15]: 35%; kinase still bound, per cent of control [17]: 100%; kinase still bound, per cent of control [24]: 78%; kinase still bound, per cent of control [25]: 96%; kinase still bound, per cent of control [26]: 78%; kinase still bound, per cent of control [27]: 0.1%; kinase still bound, per cent of control [28]: 92%; kinase still bound, per cent of control [29]: 70%; kinase still bound, per cent of control [30]: 86%; kinase still bound, per cent of control [31]: 71%; kinase still bound, per cent of control [32]: 79%; kinase still bound, per cent of control [33]: 87%; kinase still bound, per cent of control [34]: 100%; kinase still bound, per cent of control [35]: 100%; kinase still bound, per cent of control [36]: 74%; kinase still bound, per cent of control [37]: 72%; kinase still bound, per cent of control [38]: 14%; kinase still bound, per cent of control [39]: 19%
COc1cc2ncnc(Nc3cccc(Cl)c3)c2cc1OC | 76 | 67 | 62 | 74 | 38 | 100 | 40 | 100 | 100 | 84 | 32 | 97 | 91 | 16 | 46 | 97 | 49 | 30 | 72 | 100 | kinase still bound, per cent of control [15]: 100%; kinase still bound, per cent of control [17]: 100%; kinase still bound, per cent of control [40]: 38%; kinase still bound, per cent of control [24]: 90%; kinase still bound, per cent of control [25]: 54%; kinase still bound, per cent of control [26]: 39%; kinase still bound, per cent of control [27]: 39%; kinase still bound, per cent of control [28]: 14%; kinase still bound, per cent of control [29]: 100%; kinase still bound, per cent of control [30]: 6.1%; kinase still bound, per cent of control [31]: 85%; kinase still bound, per cent of control [32]: 100%; kinase still bound, per cent of control [33]: 93%; kinase still bound, per cent of control [34]: 100%; kinase still bound, per cent of control [35]: 4.6%; kinase still bound, per cent of control [36]: 100%; kinase still bound, per cent of control [37]: 74%; kinase still bound, per cent of control [38]: 70%; kinase still bound, per cent of control [39]: 94%
CC(=O)c1c(C)c2cnc(Nc3ccc(N4CCNCC4)cn3)nc2n(C2CCCC2)c1=O | 7.6 | 28 | 95 | 52 | 93 | 61 | 32 | 82 | 8 | 50 | 71 | 90 | 3.2 | 87 | 20 | 1 | 1 | 29 | 62 | 90 | kinase still bound, per cent of control [9]: 60%; kinase still bound, per cent of control [40]: 8.5%; kinase still bound, per cent of control [24]: 35%; kinase still bound, per cent of control [25]: 100%; kinase still bound, per cent of control [26]: 7.9%; kinase still bound, per cent of control [27]: 36%; kinase still bound, per cent of control [28]: 35%; kinase still bound, per cent of control [29]: 69%; kinase still bound, per cent of control [30]: 6%; kinase still bound, per cent of control [32]: 20%; kinase still bound, per cent of control [33]: 47%; kinase still bound, per cent of control [36]: 71%; kinase still bound, per cent of control [37]: 20%; kinase still bound, per cent of control [38]: 13%; kinase still bound, per cent of control [39]: 66%
CCc1nc(-c2cccc(C)c2)c(-c2ccnc(NC(=O)c3ccccc3)c2)s1 | 93 | 93 | 66 | 82 | 89 | 96 | 96 | 100 | 72 | 100 | 52 | 50 | 100 | 90 | 94 | 100 | 100 | 34 | 1.3 | 94 | kinase still bound, per cent of control [9]: 45%; kinase still bound, per cent of control [15]: 88%; kinase still bound, per cent of control [17]: 100%; kinase still bound, per cent of control [40]: 80%; kinase still bound, per cent of control [24]: 100%; kinase still bound, per cent of control [25]: 17%; kinase still bound, per cent of control [26]: 64%; kinase still bound, per cent of control [27]: 100%; kinase still bound, per cent of control [28]: 100%; kinase still bound, per cent of control [29]: 100%; kinase still bound, per cent of control [30]: 97%; kinase still bound, per cent of control [31]: 95%; kinase still bound, per cent of control [32]: 100%; kinase still bound, per cent of control [33]: 86%; kinase still bound, per cent of control [34]: 99%; kinase still bound, per cent of control [35]: 100%; kinase still bound, per cent of control [36]: 100%; kinase still bound, per cent of control [37]: 100%; kinase still bound, per cent of control [39]: 98%
